In patent publication US12139520B2 (priority 2020, dated 2024):
Bridge positions count the residues as written; N and C are the ends. Square brackets hold non-standard residues; d marks the D form. Peptide text beside a SMILES is read from it. Hyp = O=C(O)[C@@H]1C[C@@H](O)CN1

Molecular target: T1, hAMY3 receptor (Homo sapiens, UniProt O60896+P30988)
T1 sequence (P30988 25-474): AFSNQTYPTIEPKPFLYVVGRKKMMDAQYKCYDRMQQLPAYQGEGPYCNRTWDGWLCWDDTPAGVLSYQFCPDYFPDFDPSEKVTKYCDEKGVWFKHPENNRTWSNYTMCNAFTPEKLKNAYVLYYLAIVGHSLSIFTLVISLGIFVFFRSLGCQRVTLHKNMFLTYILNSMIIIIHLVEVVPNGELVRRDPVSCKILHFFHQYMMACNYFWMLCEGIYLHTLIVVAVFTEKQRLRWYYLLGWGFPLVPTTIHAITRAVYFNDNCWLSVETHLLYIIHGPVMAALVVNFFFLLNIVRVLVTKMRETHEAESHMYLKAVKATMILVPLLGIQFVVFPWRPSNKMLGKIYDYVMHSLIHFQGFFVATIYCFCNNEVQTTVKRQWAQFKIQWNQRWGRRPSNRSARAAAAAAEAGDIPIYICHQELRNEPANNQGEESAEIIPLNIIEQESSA
T1 sequence (O60896 24-148 partner): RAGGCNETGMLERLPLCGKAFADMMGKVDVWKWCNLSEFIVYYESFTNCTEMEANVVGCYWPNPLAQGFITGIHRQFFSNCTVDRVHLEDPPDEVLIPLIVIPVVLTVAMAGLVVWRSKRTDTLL
Experiment: cAMP assay for in vitro receptor activation, hAMY3-R
Assay type: cell-based
Settings: cAMP assay, hAMY3 receptor; read-out: hAMY3R EC50
Procedure, shortened: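 Read-out is TR-FRET cAMP signal, recorded one hour after reagent addition, following 30 min room-temperature stimulation of stable hAMY3 cells with graded compound doses in casein/IBMX (0.5 mM) buffer.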

Structure (SMILES)	EC50 [nM]
CC[C@H](C)[C@H](NC(=O)[C@H](CCCCN)NC(=O)[C@@H](NC(=O)[C@H](CCCNC(=N)N)NC(=O)[C@@H]1CCCN1C(=O)[C@H](C)NC(=O)[C@@H](NC(=O)[C@H](CC(N)=O)NC(=O)[C@H](CC(=O)O)NC(=O)[C@H](CCCCN)NC(=O)[C@H](CC(=O)O)NC(=O)[C@H](CCCCN)NC(=O)[C@H](CC(=O)O)NC(=O)[C@@H](NC(=O)[C@H](Cc1ccccc1)NC(=O)[C@H](CCC(N)=O)NC(=O)[C@H](Cc1ccc(O)cc1)NC(=O)[C@@H](NC(=O)[C@H](CCC(N)=O)NC(=O)[C@H](Cc1c[nH]cn1)NC(=O)[C@H](C)NC(=O)[C@H](CC(C)C)NC(=O)[C@H](CCCNC(=N)N)NC(=O)[C@H](CCC(N)=O)NC(=O)[C@@H](NC(=O)[C@@H](NC(=O)[C@@H]1CSSC[C@H](NC(=O)CN)C(=O)N[C@@H](CCCNC(=N)N)C(=O)N[C@@H](Cc2ccccc2)C(=O)NCC(=O)N[C@@H]([C@@H](C)O)C(=O)N1)[C@@H](C)O)C(C)C)[C@@H](C)CC)[C@@H](C)O)C(C)C)[C@@H](C)O)C(=O)NCC(=O)N1CCC[C@H]1C(=O)N[C@@H](CCC(N)=O)C(=O)NCC(=O)N1C[C@H](O)C[C@H]1C(N)=O [compound 111] (H-GCRFGTCTVQRLAHQIYQFTDKDKDNVAPRTKIGPQG[Hyp]-NH2; disulfide 2-7; N-terminus assumed)	0.021
CC(C)C[C@H](NC(=O)[C@H](CCCNC(=N)N)NC(=O)[C@H](CCC(N)=O)NC(=O)[C@@H](NC(=O)[C@@H](NC(=O)[C@@H]1CSSC[C@H](NC(=O)CN)C(=O)N[C@@H](CCCNC(=N)N)C(=O)N[C@@H](Cc2ccccc2)C(=O)NCC(=O)N[C@@H]([C@@H](C)O)C(=O)N1)[C@@H](C)O)C(C)C)C(=O)N[C@@H](C)C(=O)N[C@@H](Cc1c[nH]cn1)C(=O)N[C@@H](Cc1ccccc1)C(=O)N[C@@H](CC(C)C)C(=O)N[C@@H](Cc1ccc(O)cc1)C(=O)N[C@@H](CCC(N)=O)C(=O)N[C@@H](Cc1ccccc1)C(=O)N[C@H](C(=O)N[C@@H](CC(=O)O)C(=O)N[C@@H](CCCCN)C(=O)N[C@@H](CC(=O)O)C(=O)N[C@@H](CCCCN)C(=O)N[C@@H](CC(=O)O)C(=O)N[C@@H](CC(N)=O)C(=O)N[C@H](C(=O)N[C@@H](C)C(=O)N1CCC[C@H]1C(=O)N[C@@H](CCCNC(=N)N)C(=O)N[C@H](C(=O)N[C@@H](CCCCN)C(=O)N[C@H](C(=O)NCC(=O)N[C@@H](CO)C(=O)N[C@@H](CC(N)=O)C(=O)NCC(=O)N[C@@H](Cc1ccc(O)cc1)C(N)=O)C(C)C)[C@@H](C)O)C(C)C)[C@@H](C)O [compound 117] (H-GCRFGTCTVQRLAHFLYQFTDKDKDNVAPRTKVGSNGY-NH2; disulfide 2-7; N-terminus assumed)	0.024
CC[C@H](C)[C@H](NC(=O)[C@H](C)NC(=O)CNC(=O)[C@H](CC(=O)O)NC(=O)[C@H](CCCCN)NC(=O)[C@H](CC(=O)O)NC(=O)[C@@H](NC(=O)[C@H](Cc1ccccc1)NC(=O)[C@H](CCC(N)=O)NC(=O)[C@H](Cc1ccc(O)cc1)NC(=O)[C@H](CC(C)C)NC(=O)[C@H](Cc1ccccc1)NC(=O)[C@H](Cc1c[nH]cn1)NC(=O)[C@H](C)NC(=O)[C@H](CC(C)C)NC(=O)[C@H](CCCNC(=N)N)NC(=O)[C@H](CCC(N)=O)NC(=O)[C@@H](NC(=O)[C@@H](NC(=O)[C@@H]1CSSC[C@H](NC(=O)CN)C(=O)N[C@@H](CCCNC(=N)N)C(=O)N[C@@H](Cc2ccccc2)C(=O)NCC(=O)N[C@@H]([C@@H](C)O)C(=O)N1)[C@@H](C)O)C(C)C)[C@@H](C)O)C(=O)N[C@@H](C)C(=O)N1CCC[C@H]1C(=O)N[C@@H](CCCNC(=N)N)C(=O)N[C@H](C(=O)N[C@@H](CCCCN)C(=O)N[C@H](C(=O)NCC(=O)N[C@@H](CO)C(=O)N[C@@H](CCC(N)=O)C(=O)NCC(=O)N[C@@H](Cc1ccc(O)cc1)C(N)=O)[C@@H](C)CC)[C@@H](C)O [compound 123] (H-GCRFGTCTVQRLAHFLYQFTDKDGAIAPRTKIGSQGY-NH2; disulfide 2-7; N-terminus assumed)	0.027
CC[C@H](C)[C@H](NC(=O)[C@H](CC(N)=O)NC(=O)[C@@H](NC(=O)[C@H](CCCNC(=N)N)NC(=O)[C@@H]1CCCN1C(=O)[C@H](C)NC(=O)[C@@H](NC(=O)[C@H](CC(N)=O)NC(=O)[C@H](CC(=O)O)NC(=O)[C@H](CCCCN)NC(=O)[C@H](CC(=O)O)NC(=O)[C@H](CCCCN)NC(=O)[C@H](CC(=O)O)NC(=O)[C@@H](NC(=O)[C@H](Cc1ccccc1)NC(=O)[C@H](CCC(N)=O)NC(=O)[C@H](Cc1ccc(O)cc1)NC(=O)[C@@H](NC(=O)[C@H](CCC(N)=O)NC(=O)[C@H](Cc1c[nH]cn1)NC(=O)[C@H](C)NC(=O)[C@H](CC(C)C)NC(=O)[C@H](CCCNC(=N)N)NC(=O)[C@H](CCC(N)=O)NC(=O)[C@@H](NC(=O)[C@@H](NC(=O)[C@@H]1CSSC[C@H](NC(=O)CN)C(=O)N[C@@H](CCCNC(=N)N)C(=O)N[C@@H]([C@@H](C)O)C(=O)NCC(=O)N[C@@H]([C@@H](C)O)C(=O)N1)[C@@H](C)O)C(C)C)[C@@H](C)CC)[C@@H](C)O)C(C)C)[C@@H](C)O)C(=O)NCC(=O)N1CCC[C@H]1C(=O)N[C@@H](CC(N)=O)C(=O)NCC(=O)N[C@@H](Cc1ccc(O)cc1)C(N)=O [compound 142] (H-GCRTGTCTVQRLAHQIYQFTDKDKDNVAPRTNIGPNGY-NH2; disulfide 2-7; N-terminus assumed)	0.036
CC[C@H](C)[C@H](NC(=O)[C@H](CC(N)=O)NC(=O)[C@H](CO)NC(=O)[C@H](CCCNC(=N)N)NC(=O)[C@@H]1CCCN1C(=O)[C@H](C)NC(=O)[C@@H](NC(=O)[C@H](CC(N)=O)NC(=O)[C@H](CC(=O)O)NC(=O)[C@H](CCCCN)NC(=O)[C@H](CC(=O)O)NC(=O)[C@H](CCCCN)NC(=O)[C@H](CC(=O)O)NC(=O)[C@@H](NC(=O)[C@H](Cc1ccccc1)NC(=O)[C@H](CCC(N)=O)NC(=O)[C@H](Cc1ccc(O)cc1)NC(=O)[C@@H](NC(=O)[C@H](CCC(N)=O)NC(=O)[C@H](Cc1c[nH]cn1)NC(=O)[C@H](C)NC(=O)[C@H](CC(C)C)NC(=O)[C@H](CCCNC(=N)N)NC(=O)[C@H](CCC(N)=O)NC(=O)[C@@H](NC(=O)[C@@H](NC(=O)[C@@H]1CSSC[C@H](NC(=O)CN)C(=O)N[C@@H](CCCNC(=N)N)C(=O)N[C@@H]([C@@H](C)O)C(=O)NCC(=O)N[C@@H]([C@@H](C)O)C(=O)N1)[C@@H](C)O)C(C)C)[C@@H](C)CC)[C@@H](C)O)C(C)C)C(=O)NCC(=O)N1CCC[C@H]1C(=O)N[C@@H](CC(N)=O)C(=O)NCC(=O)N1C[C@H](O)C[C@H]1C(N)=O [compound 151] (H-GCRTGTCTVQRLAHQIYQFTDKDKDNVAPRSNIGPNG[Hyp]-NH2; disulfide 2-7; N-terminus assumed)	0.041
